This assay relates to NCI-H929 (ATCC CRL-9068) cells. Kind of assay: NCI-H929 cell proliferation assay (CellTiter-Glo). The class given is cell-based. The conditions noted are these: 72 h of compound treatment. How it is done:
Cell proliferation was measured using the CellTiter-Glo® Luminescent Cell Viability Assay. The assay involved the addition of a single reagent (CellTiter-Glo® Reagent) directly to cells cultured in serum-supplemented medium.
Each compound evaluated was prepared as a DMSO stock solution (10 mM). Compounds were tested in duplicate on each plate, with a 10-point serial dilution curve (1:3 dilution). Compound treatment ([…]) was added from the compound dilution plate to the cell plate. The highest compound concentration was 10 μM (final), with a 0.1% final DMSO concentration. Plates were then incubated at 37° C., 5% CO2. After 72 h of compound treatment, cell plates were equilibrated at rt for approximately 30 mins. An equi-volume amount of CellTiter-Glo® Reagent (40 μL) was added to each well. Plates were mixed for 2 mins on an orbital shaker to induce cell lysis and then incubated at rt for 10 mins to stabilize the luminescent signal. Luminescence was recorded using an Envision plate reader according to CellTiter-Glo protocol. IC50 of each compound was calculated using GraphPad Prism by nonlinear regression analysis.
On the technique in general: Cellular ATP, detected with luciferase, serves as a proxy for viable cell number.

Bounds are passed on as bounds.

This passage reports IC50 results from patent publication US20220144854A1, “MACROCYCLIC COMPOUNDS” (ZENO MANAGEMENT, INC., priority 2019, published 2022).

The term IC50 denotes the concentration that inhibits the measured activity by half. Low values mean inhibition by little substance, high ones a need for much substance. The compound `Cn1nc2cc1CSc1cc(c3ccccc3c1)OCCCc1c(C(=O)O)n(C)c3c(c(Cl)ccc13)-c1c(nn3c1CNCC3)CSC2` [Example 23B, (Z)-1^6-Chloro-1^1,6^1-dimethyl-2^4,2^5,2^6,2^7-tetrahydro-1^1H,6^1H-10-oxa-4,8-dithia-2(3,2)-pyrazolo[1,5-a]pyrazina-1(7,3)-indola-6(3,5)-pyrazola-9(3,1)-naphthalenacyclotridecaphane-1^2-carboxylic acid] displayed a half-inhibitory concentration (IC50) (Homo sapiens, NCI-H929, 72 h) of 100 to 1000 nM. Consider `Cc1nn(C)c2c1-c1c(Cl)ccc3c(c(C(=O)O)n(C)c13)CCCOc1cc(cc3ccccc13)SCc1cc(nn1C)CSC2` (single isomer, unassigned) [Example 19B, (Z)-1^6-Chloro-1^1,2^1,2^3,6^1-tetramethyl-1^1H,2^1H,6^1H-10-oxa-4,8-dithia-1(7,3)-indola-2(4,5),6(3,5)-dipyrazola-9(3,1)-naphthalenacyclotridecaphane-1^2-carboxylic acid], for which the IC50 is below 100 nM. `Cn1nc2cc1CSc1cc(c3ccccc3c1)OCCCc1c(C(=O)O)n(C)c3c(c(Cl)ccc13)-c1c(nn3c1CCC3)CNC2` [Example 26A] showed an IC50 (Homo sapiens, NCI-H929, 72 h) of 100 to 1000 nM. `Cc1nn(C)c2c1-c1c(Cl)ccc3c(c(C(=O)O)n(C)c13)CCCOc1cc(cc3ccccc13)SCc1cc(nn1C)CSC2` (single isomer, unassigned) [Example 19A, (Z)-1^6-Chloro-1^1,2^1,2^3,6^1-tetramethyl-1^1H,2^1H,6^1H-10-oxa-4,8-dithia-1(7,3)-indola-2(4,5),6(3,5)-dipyrazola-9(3,1)-naphthalenacyclotridecaphane-1^2-carboxylic acid] yielded an IC50 above 1000 nM.

`Cn1nc2cc1CCc1cc(c3ccccc3c1)OCCCc1c(C(=O)O)n(C)c3c(c(Cl)ccc13)-c1c(nn3c1CCCC3)CNC2` (single isomer, unassigned) [Example 27A, (Z)-1^6-Chloro-1^1,6^1-dimethyl-2^4,2^5,2^6,2^7-tetrahydro-1^1H,6^1H-10-oxa-4-aza-2(3,2)-pyrazolo[1,5-a]pyridina-1(7,3)-indola-6(3,5)-pyrazola-9(3,1)-naphthalenacyclotridecaphane-1^2-carboxylic acid] yielded an IC50 of 100 to 1000 nM. `CC(=O)N1CCn2nc3c(c2C1)-c1c(Cl)ccc2c(c(C(=O)O)n(C)c12)CCCOc1cc(cc2ccccc12)SCc1cc(nn1C)CSC3` [Example 24A, (Z)-2^5-Acetyl-1^6-chloro-1^1,6^1-dimethyl-2^4,2^5,2^6,2^7-tetrahydro-1^1H,6^1H-10-oxa-4,8-dithia-2(3,2)-pyrazolo[1,5-a]pyrazina-1(7,3)-indola-6(3,5)-pyrazola-9(3,1)-naphthalenacyclotridecaphane-1^2-carboxylic acid] had an IC50 (Homo sapiens, NCI-H929, 72 h) of 100 to 1000 nM. `Cc1c2c(nn1C)CSCc1cc(n(C)n1)CSc1cc(c3ccccc3c1)OCCCc1c(C(=O)O)n(C)c3c-2c(F)ccc13` [Example 14B, (Z)-1^6-Fluoro-1^1,2^1,2^5,6^1-tetramethyl-1^1H,2^1H,6^1H-10-oxa-4,8-dithia-1(7,3)-indola-2(4,3),6(3,5)-dipyrazola-9(3,1)-naphthalenacyclotridecaphane-1^2-carboxylic acid] came in with a 50% inhibitory concentration (IC50) above 1000 nM. On to `Cc1nn(C23CC(C2)C3)c2c1-c1c(Cl)ccc3c(c(C(=O)O)n(C)c13)CCCOc1cc(cc3ccccc13)SCc1cc(n[nH]1)CSC2` [Example 21A, (Z)-2^1-(Bicyclo[1.1.1]pentan-1-yl)-1^6-chloro-1^1,2^3-dimethyl-1^1H,2^1H,6^1H-10-oxa-4,8-dithia-1(7,3)-indola-2(4,5),6(3,5)-dipyrazola-9(3,1)-naphthalenacyclotridecaphane-1^2-carboxylic acid], for which, where the note is “Homo sapiens, NCI-H929, 72 h”, the half-maximal inhibitory concentration (IC50) was above 1000 nM. In the case of `Cn1nc2cc1CCc1cc(c3ccccc3c1)OCCCc1c(C(=O)O)n(C)c3c(c(Cl)ccc13)-c1c(nn3c1CCC3)CNC2` [Example 26B, (Z)-1^6-chloro-1^1,6^1-dimethyl-2^5,2^6-dihydro-1^1H,2^4H,6^1H-10-oxa-4-aza-1(7,3)-indola-2(3,2)-pyrrolo[1,2-b]pyrazola-6(3,5)-pyrazola-9(3,1)-naphthalenacyclotridecaphane-1^2-carboxylic acid], the IC50 is above 1000 nM.
